{
  "source": "patent US5869659A",
  "about": "“Heteroatom-containing cyclopentanopyridyl-oxazolidinones” (Bayer Aktiengesellschaft, priority 1996, dated 1999)",
  "type_in_all_cases": "cell-based",
  "key": {"E. coli Neumann": {"system": "E. coli Neumann", "experiment": "MIC by serial dilution on Iso-Sensitest agar", "conditions": "Escherichia coli", "method": "(§1) The minimum inhibitory concentrations (MICs) were determined by serial dilution tests on Iso-Sensitest agar (Oxoid). For each test substance, a number of agar plates were prepared which contained decreasing concentrations of the active compound. The agar plates were inoculates using a multipoint inoculator (Denley). For inoculation, overnight cultures of the pathogenic organisms were used which had previously been diluted such that each inoculation point contained about 10^4 colony-forming particles. The inoculated agar plates were incubated at 37° C., and the microorganism growth was read off after about 20 hours. The MICs (μg/ml) indicates the lowest active compound concentration at which no growth could be detected using the naked eye."}, "Klebs. 57 USA": {"system": "Klebs. 57 USA", "experiment": "MIC by serial dilution on Iso-Sensitest agar", "method": "as §1"}, "Psdm. Bonn": {"system": "Psdm. Bonn", "experiment": "MIC by serial dilution on Iso-Sensitest agar", "method": "as §1"}, "Staph. 133": {"system": "Staph. 133", "experiment": "MIC by serial dilution on Iso-Sensitest agar", "conditions": "37° C., about 20 hours", "method": "as §1"}, "Staph. 25701": {"system": "Staph. 25701", "experiment": "MIC by serial dilution on Iso-Sensitest agar", "conditions": "37° C., about 20 hours", "method": "as §1"}, "Staph. 48N": {"system": "Staph. 48N", "experiment": "MIC by serial dilution on Iso-Sensitest agar", "conditions": "37° C., about 20 hours", "method": "as §1"}, "Staph. 9TV": {"system": "Staph. 9TV", "experiment": "MIC by serial dilution on Iso-Sensitest agar", "method": "as §1"}, "[1]": {"system": "Mycobacterium smegmatis DSM 43061", "experiment": "MIC for rapidly growing mycobacteria by broth microdilution", "conditions": "Mycolicibacterium smegmatis, DSM43061", "method": "(§2) For rapidly growing mycobacteria, the MIC determination was carried out following the method of broth microdilution described by Swenson [cf. J. M. Swenson, C. Thornberry, U. A. Silcox, Rapidly growing mycobacteria. Testing of suceptibility to 34 antimicrobial agents by broth microdilution. Antimicrobial Agents and Chemotherapy Vol. 22, 186-192 (1982)]. A deviation from this was the brain-heart extract medium treated with 0.1% by volume of Tween 80.\n(§3) The mycobacterial strains used were obtained from the DSM (German Collection of Microorganisms, Braunschweig). They were incubated at 37° C. in a humid chamber.\n(§4) The MICs were read off after 2-4 days when the preparation-free controls had become cloudy as a result of growth."}, "[2]": {"system": "Mycobacterium smegmatis DSM 43465", "experiment": "MIC for rapidly growing mycobacteria by broth microdilution", "conditions": "Mycolicibacterium smegmatis, DSM43465", "method": "as §2, §3, §4"}, "[3]": {"conditions": "Staph. 9TV, 37° C., about 20 hours, read-out: MIC"}, "[4]": {"conditions": "DSM 43061, brain-heart extract medium with 0.1% Tween 80, 37° C., 2-4 days, read-out: MIC"}, "[5]": {"conditions": "DSM 43465, brain-heart extract medium with 0.1% Tween 80, 37° C., 2-4 days, read-out: MIC"}, "[6]": {"conditions": "E. coli Neumann, 37° C., about 20 hours, read-out: MIC"}, "[7]": {"conditions": "Klebs. 57 USA, 37° C., about 20 hours, read-out: MIC"}, "[8]": {"conditions": "Psdm. Bonn, 37° C., about 20 hours, read-out: MIC"}},
  "note": "Where two headings read alike, the source gives them in different places.",
  "data": [
    {"smiles": "Cn1c(=O)oc2cc(N3CC(CNC(=O)C4CC4)OC3=O)cnc21", "note": "(racemic) [Example 11]", "values": [
      {"measurement": "MIC", "setting": "E. coli Neumann; 20 h", "result": "> 64", "unit": "µg/mL"},
      {"measurement": "MIC", "setting": "Klebs. 57 USA; 20 h", "result": "> 64", "unit": "µg/mL"},
      {"measurement": "MIC", "setting": "Psdm. Bonn; 20 h", "result": "> 64", "unit": "µg/mL"},
      {"measurement": "MIC", "setting": "Staph. 133", "result": 8, "unit": "µg/mL"},
      {"measurement": "MIC", "setting": "Staph. 25701", "result": 8, "unit": "µg/mL"},
      {"measurement": "MIC", "setting": "Staph. 48N", "result": 8, "unit": "µg/mL"},
      {"measurement": "MIC", "setting": "Staph. 9TV; [3]", "result": 4, "unit": "µg/mL"},
      {"measurement": "MIC", "setting": "[1]; [4]", "result": 8, "unit": "µg/mL"},
      {"measurement": "MIC", "setting": "[2]; [5]", "result": 4, "unit": "µg/mL"}
    ]},
    {"smiles": "CCC(=O)NCC1CN(c2cnc3c(c2)oc(=O)n3C)C(=O)O1", "note": "(racemic) [Example 12]", "values": [
      {"measurement": "MIC", "setting": "E. coli Neumann; [6]", "result": "> 64", "unit": "µg/mL"},
      {"measurement": "MIC", "setting": "Klebs. 57 USA; [7]", "result": "> 64", "unit": "µg/mL"},
      {"measurement": "MIC", "setting": "Psdm. Bonn; [8]", "result": "> 64", "unit": "µg/mL"},
      {"measurement": "MIC", "setting": "Staph. 133", "result": 8, "unit": "µg/mL"},
      {"measurement": "MIC", "setting": "Staph. 25701", "result": 8, "unit": "µg/mL"},
      {"measurement": "MIC", "setting": "Staph. 48N", "result": 8, "unit": "µg/mL"},
      {"measurement": "MIC", "setting": "Staph. 9TV; 20 h", "result": 4, "unit": "µg/mL"},
      {"measurement": "MIC", "setting": "[1]", "result": 4, "unit": "µg/mL"},
      {"measurement": "MIC", "setting": "[2]", "result": 4, "unit": "µg/mL"}
    ]},
    {"smiles": "COC(=O)NCC1CN(c2cnc3c(c2)oc(=O)n3C)C(=O)O1", "note": "(racemic) [Example 13]", "values": [
      {"measurement": "MIC", "setting": "E. coli Neumann; [6]", "result": "> 64", "unit": "µg/mL"},
      {"measurement": "MIC", "setting": "Klebs. 57 USA; [7]", "result": "> 64", "unit": "µg/mL"},
      {"measurement": "MIC", "setting": "Psdm. Bonn; [8]", "result": "> 64", "unit": "µg/mL"},
      {"measurement": "MIC", "setting": "Staph. 133", "result": 8, "unit": "µg/mL"},
      {"measurement": "MIC", "setting": "Staph. 25701", "result": 8, "unit": "µg/mL"},
      {"measurement": "MIC", "setting": "Staph. 48N", "result": 8, "unit": "µg/mL"},
      {"measurement": "MIC", "setting": "Staph. 9TV; [3]", "result": 4, "unit": "µg/mL"},
      {"measurement": "MIC", "setting": "[1]; [4]", "result": 8, "unit": "µg/mL"},
      {"measurement": "MIC", "setting": "[2]; [5]", "result": 8, "unit": "µg/mL"}
    ]},
    {"smiles": "CC(=O)NCC1CN(c2cnc3c(c2)oc(=O)n3C)C(=O)O1", "note": "(stereo not shown) [Example 10, 5-Acetylaminomethyl-3-(3-methyloxazolo[4,5-b]-pyridin-2(3H)-on-6yl)oxazolidin-2-one]", "values": [
      {"measurement": "MIC", "setting": "E. coli Neumann; 20 h", "result": "> 64", "unit": "µg/mL"},
      {"measurement": "MIC", "setting": "Klebs. 57 USA; 20 h", "result": "> 64", "unit": "µg/mL"},
      {"measurement": "MIC", "setting": "Psdm. Bonn; 20 h", "result": "> 64", "unit": "µg/mL"},
      {"measurement": "MIC", "setting": "Staph. 25701", "result": 8, "unit": "µg/mL"},
      {"measurement": "MIC", "setting": "Staph. 48N", "result": 8, "unit": "µg/mL"},
      {"measurement": "MIC", "setting": "Staph. 9TV; [3]", "result": 4, "unit": "µg/mL"},
      {"measurement": "MIC", "setting": "[1]; [4]", "result": 4, "unit": "µg/mL"},
      {"measurement": "MIC", "setting": "[2]; [5]", "result": 4, "unit": "µg/mL"}
    ]},
    {"smiles": "CC(=O)NC[C@H]1CN(c2ccc3nc(C)sc3n2)C(=O)O1", "note": "[Example 14]", "values": [
      {"measurement": "MIC", "setting": "E. coli Neumann; [6]", "result": "> 64", "unit": "µg/mL"},
      {"measurement": "MIC", "setting": "Klebs. 57 USA; [7]", "result": "> 64", "unit": "µg/mL"},
      {"measurement": "MIC", "setting": "Psdm. Bonn; [8]", "result": "> 64", "unit": "µg/mL"},
      {"measurement": "MIC", "setting": "Staph. 133", "result": 4, "unit": "µg/mL"},
      {"measurement": "MIC", "setting": "Staph. 25701", "result": 4, "unit": "µg/mL"},
      {"measurement": "MIC", "setting": "Staph. 48N", "result": 8, "unit": "µg/mL"},
      {"measurement": "MIC", "setting": "Staph. 9TV; [3]", "result": 2, "unit": "µg/mL"}
    ]},
    {"smiles": "NNC(=O)c1ccncc1", "note": "[Isoniazide, reference compound]", "values": [
      {"measurement": "MIC", "setting": "[1]; [4]", "result": 4, "unit": "µg/mL"},
      {"measurement": "MIC", "setting": "[2]; [5]", "result": 1, "unit": "µg/mL"}
    ]},
    {"smiles": "[H]/N=C(/N)N[C@H]1[C@H](O)[C@@H](O)[C@H](O[C@@H]2O[C@@H](C)[C@](O)(C=O)[C@H]2O[C@@H]2O[C@@H](CO)[C@H](O)[C@@H](O)[C@@H]2NC)[C@@H](N/C(N)=N\\[H])[C@@H]1O", "note": "[Streptomycin, reference compound]", "values": [
      {"measurement": "MIC", "setting": "[1]", "result": 4, "unit": "µg/mL"},
      {"measurement": "MIC", "setting": "[2]", "result": 4, "unit": "µg/mL"}
    ]}
  ]
}
